Measurements: patent US20160160234A1, “COMPOSITION FOR TRANSFERRING GENE TO CELL” (ISHIHARA SANGYO KAISHA, LTD., priority 2013, published 2016)

Tests used:
[1] = tested on: NIH-3T3 cells; test: Luciferase gene expression after transfection with pCMV-GL3 plasmid (ONE-Glo Luciferase Assay System); assay type: cell-based
[2] = tested on: RAW264.7 cells; test: as above; assay type: cell-based
Method: Gene transfer using FuGENE HD transfection reagent (Roche) was performed as follows.
Gene transfer using Polyethylenimine Max (Polyscience) was performed as follows. 13.5 μL of water was added to 1.5 μL of 1 mg/mL Polyethylenimine Max (pH of 7, MW of 25,000).

[3] = tested on: A549 cells
Method: A549 cells and NIH-3T3 cells, both of which are adherent cultured cells, were individually seeded in a 96-well plate at a cell density of 4×10^3 cells/well one day before transfection.
84 μL of a 10 mg/mL sericin (Wako Pure Chemical Industries, Ltd., trade name: Pure Sericin) aqueous solution was added to 6 μL of a ½% sorbitan sesquioleate (Nacalai Tesque, Inc.) ethanol solution, and the mixture was mixed by pipetting.
As a virus-derived envelope, a 47.8 HAU/μL inactivated HVJ envelope (GenomONE-CF: registered trademark, produced by Ishihara Sangyo Kaisha, Ltd.) suspension, which is derived from Sendai virus, was used in the experiment.
After 54 μL of PBS was added to 6 μL of the inactivated HVJ envelope suspension, 6 μL of a 2% Triton X-100 PBS solution was added thereto. The mixture was centrifuged at 4° C., 10,000 g for 5 minutes with a high-speed refrigerated microcentrifuge, thereby pelletting down the inactivated HVJ envelope. […] After 2.5 μL of the liquid mixture of the inactivated HVJ envelope and the pCMV-GL3 plasmid was transferred to each tube, 28 μL of a 1/20 mg/mL laminin (SIGMA) aqueous solution or water was individually added thereto, and each mixture was mixed by pipetting. […]

[4] = tested on: K562 cells; test: Luciferase gene expression after transfection with pCMV-GL3 plasmid (ONE-Glo Luciferase Assay System); assay type: cell-based; details: Example 16, in combination with the composition of the present invention or Lipofectamine LTX&PLUS reagent
Method: (§1) The next day, whether gene transfer was achieved was confirmed by measuring the enzyme activity (relative value) of luciferase protein produced from the pCMV-GL3 plasmid by using ONE-Glo Luciferase Assay System (Promega).
K562 cells, which are suspension cultured cells, were seeded in a 96-well plate at a cell density of 2×10^4 cells/well on the day of transfection.
154 μL of a 15 mg/mL sericin PBS solution was added to 11 μL of a ½% sorbitan sesquioleate (Nacalai Tesque, Inc.) ethanol solution, and the mixture was mixed by pipetting.
48 μL of the prepared solution above was added to 40 μL of a 1/10 mg/mL pCMV-GL3 plasmid solution, and the mixture was mixed by pipetting. 20 μL of a 1 mg/mL protamine sulfate PBS solution was then added to prepare a test composition (prepared for each kind of cells; total of three tubes). The test composition was added at 15 μL/well to the cell culture media.
Gene transfer using Lipofectamine LTX&PLUS reagent (Invitrogen) was performed as follows. 0.7 μL of a 1 mg/mL pCMV-GL3 plasmid solution and 0.7 μL of a PLUS reagent were added to 140 μL of Opti-MEM I Reduced Serum Medium (Gibco), and the mixture was allowed to stand for 5 minutes. 2.8 μL of Lipofectamine LTX reagent was further added thereto, and the mixture was allowed to stand for 25 minutes, after which it was added at 20 μL/well to the cell culture media. […]

[5] = tested on: Jurkat cells; test: as above; details: Example 12, lipid ethanol solutions ¼% or ⅕%, 5 mg/mL sericin, 1 mg/mL protamine sulfate, 15 μL/well, next day
Method: Jurkat cells, which are suspension cultured cells, were seeded in a 96-well plate at a cell density of 4×10^4 cells/well on the day of transfection.
280 μL of a 15 mg/mL sericin (Wako Pure Chemical Industries, Ltd., trade name: Pure Sericin) PBS solution was added to 20 μL of a ½% sorbitan sesquioleate (Nacalai Tesque, Inc.) ethanol solution, and the mixture was mixed by pipetting.
The inactivated HVJ envelope suspension was diluted 2-fold, 4-fold, 8-fold, 16-fold, and 32-fold with PBS. 8 μL of a 0.3% Triton X-100 PBS solution was added to 4 μL of each of these diluted, inactivated HVJ envelope suspensions, and each mixture was centrifuged at 4° C., 10,000 g for 5 minutes with a high-speed refrigerated microcentrifuge, thereby pelleting down the inactivated HVJ envelope. […] 4 μL of PBS was added to 12.5 μL of each of the individual HVJ envelope suspensions containing the plasmid or to a 1/10 mg/mL pCMV-GL3 plasmid solution, and 20 μL of the liquid mixture of sorbitan sesquioleate and sericin prepared in advance was further added to each mixture. After each of the resulting mixtures was mixed by pipetting, 6.25 μL of a 1 mg/mL protamine sulfate PBS solution was added to each mixture, thereby preparing test compositions. Each of these test compositions was added at 9.5 μL/well to the cell culture medium.
as §1
112 μL of a 15 mg/mL sericin (Wako Pure Chemical Industries, Ltd., trade name: Pure Sericin) PBS solution was added to 8 μL of a ½% sorbitan sesquioleate (Nacalai Tesque, Inc.) ethanol solution, and the mixture was mixed by pipetting.
10 μL of a 0.2% Triton X-100 PBS solution was added to 1 μL of the inactivated HVJ envelope suspension, and the mixture was centrifuged at 4° C., 10,000 g for 5 minutes with a high-speed refrigerated microcentrifuge, thereby pelletting down the inactivated HVJ envelope. […]

[6] = tested on: THP-1 cells; test: Gene transfer of pTurboGFP-N plasmid observed with a fluorescence microscope; assay type: cell-based; details: Example 1, 5 μL/well, next day, FIG. 3
[7] = tested on: A549 cells; test: as above; assay type: cell-based; details: Example 1, 5 μL/well, next day, FIG. 3
[8] = Example 16, in combination with the composition of the present invention or Lipofectamine LTX&PLUS reagent
[9] = Example 12, lipid ethanol solutions ¼% or ⅕%, 5 mg/mL sericin, 1 mg/mL protamine sulfate, 15 μL/well, next day
[10] = Example 11, pCMV-GL3 in inactivated HVJ envelope (component F) in all compositions, 8.1 μL/well, next day

Sericin
Luciferase gene expression level (relative value) ([1]; Example 13, Sericin concentration 0 mg/mL (PBS), with ½% sorbitan sesquioleate and 1 mg/mL protamine sulfate, 15 μL/well): 346 | Luciferase gene expression level (relative value) ([1]; Example 13, Sericin concentration 3 mg/mL, with ½% sorbitan sesquioleate and 1 mg/mL protamine sulfate, 15 μL/well): 761,785 | Luciferase gene expression level (relative value) ([1]; Example 13, Sericin concentration 5 mg/mL, with ½% sorbitan sesquioleate and 1 mg/mL protamine sulfate, 15 μL/well): 729,703 | Luciferase gene expression level (relative value) ([1]; Example 13, Sericin concentration 20 mg/mL, with ½% sorbitan sesquioleate and 1 mg/mL protamine sulfate, 15 μL/well): 762,661 | Luciferase gene expression level (relative value) ([1]; Example 13, Sericin concentration 30 mg/mL, with ½% sorbitan sesquioleate and 1 mg/mL protamine sulfate, 15 μL/well): 458,447 | Luciferase gene expression level (relative value) ([1]; Example 13, Sericin concentration 50 mg/mL, with ½% sorbitan sesquioleate and 1 mg/mL protamine sulfate, 15 μL/well): 24,194 | Luciferase gene expression level (relative value) ([1]; Example 13, Sericin concentration ¼ mg/mL, with ½% sorbitan sesquioleate and 1 mg/mL protamine sulfate, 15 μL/well): 77,190 | Luciferase gene expression level (relative value) ([1]; Example 13, Sericin concentration ½ mg/mL, with ½% sorbitan sesquioleate and 1 mg/mL protamine sulfate, 15 μL/well): 285,344 | gene expression compared with the case where sericin was not used ([1]; Example 13, ¼ to 50 mg/mL sericin): gene expression was improved

O=C(NCCCNc1nc(Nc2cccc(NC(=O)N3CCCC3)c2)ncc1I)c1cccs1 [compound A, N-[3-[[5-iodo-4-[[3-[(2-thienylcarbonyl)amino]propyl]amino]-2-pyrimidinyl]amino]phenyl]-1-pyrrolidinecarboxamide]
improvement in gene expression by compound A used in combination with a gene transfer vector [2, 8]: improvement in the gene expression was confirmed | improvement in gene expression by compound A used in combination with a gene transfer vector ([2]; Example 17, in combination with the composition of the present invention, Lipofectamine LTX&PLUS reagent, FuGENE HD transfection reagent, or Polyethylenimine Max): improvement in gene expression was confirmed | improvement in gene expression by compound A used in combination with a gene transfer vector [3, 8]: improvement in the gene expression was confirmed | improvement in gene expression by compound A used in combination with a gene transfer vector [4]: improvement in the gene expression was confirmed

cardiolipin
Luciferase gene expression level (relative value) [5]: makes it possible to introduce a gene | Luciferase gene expression level (relative value) [1, 9]: makes it possible to introduce a gene

sorbitan monooleate
Luciferase gene expression level (relative value) [5]: makes it possible to introduce a gene | Luciferase gene expression level (relative value) [1, 9]: makes it possible to introduce a gene

sorbitan sesquioleate
Luciferase gene expression level (relative value) [5]: makes it possible to introduce a gene | Luciferase gene expression level (relative value) [1, 9]: makes it possible to introduce a gene | gene expression ([1]; Example 14, 1/50 to 5/2% sorbitan sesquioleate): gene expression was observed | Luciferase gene expression level (relative value) ([1]; Example 14, Sorbitan sesquioleate concentration 1/2%, with 10 mg/mL sericin and 1 mg/mL protamine sulfate, 15 μL/well): 1,349,057 | Luciferase gene expression level (relative value) ([1]; Example 14, Sorbitan sesquioleate concentration 1/10%, with 10 mg/mL sericin and 1 mg/mL protamine sulfate, 15 μL/well): 291,463 | Luciferase gene expression level (relative value) ([1]; Example 14, Sorbitan sesquioleate concentration 1/50%, with 10 mg/mL sericin and 1 mg/mL protamine sulfate, 15 μL/well): 887 | Luciferase gene expression level (relative value) ([1]; Example 14, Sorbitan sesquioleate concentration 5/2%, with 10 mg/mL sericin and 1 mg/mL protamine sulfate, 15 μL/well): 425,949

protamine sulfate [component C]
gene transfer (green fluorescent protein TurboGFP observed with a fluorescence microscope) [6]: Almost no gene transfer | gene transfer (green fluorescent protein TurboGFP observed with a fluorescence microscope) [7]: Almost no gene transfer | Luciferase gene expression level (relative value) [3, 10]: gene transfer was observed | Luciferase gene expression level (relative value) [1, 10]: gene transfer was observed
